Patent publication US11229636B2, “Substituted tetrahydroquinolinone compounds as ROR gamma modulators” (Aurigene Discovery Technologies Limited, priority 2015, dated 2022)

molecular target: ROR gamma ligand binding domain (Homo sapiens (Human), UniProt P51449); experiment: ROR gamma luciferase reporter assay (GAL4-ROR gamma LBD, HEK293 cells); type: cell-based; settings: 48 hours treatment, read-out: RORγ luciferase Reporter assay: IC50 (nM) (in range)
Procedure: The Ligand Binding Domain (LBD) of ROR gamma was cloned into pFN26A (BIND) hRluc-neo Flexi vector (Promega) which expresses a fusion protein comprised of a DNA binding domain of the yeast GAL4 gene, a linker segment and ROR gamma ligand binding domain. For the reporter assay 0.02×10^6 HEK293 cells were seeded per well in a 96 well plate in complete media and incubated overnight in an incubator with 5% CO2 at 37° C. before transfection. Cells were then co-transfected with pFN26A hRluc-neo Flexi vector containing the LBD of ROR gamma and pGL4.35 [luc2P/9XGAL4 UAS/Hygro] Vector (Promega) in low serum media. Post transfection and recovery, cells were treated with the test compounds for 48 hours. The assay was terminated using the Bright-Glo Luciferase assay system from Promega and the Luminescence was measured using a luminescence reader. The luminescence values were used to calculate the potency of the compounds.

ROR gamma ligand binding domain, sequence (P51449 269-508): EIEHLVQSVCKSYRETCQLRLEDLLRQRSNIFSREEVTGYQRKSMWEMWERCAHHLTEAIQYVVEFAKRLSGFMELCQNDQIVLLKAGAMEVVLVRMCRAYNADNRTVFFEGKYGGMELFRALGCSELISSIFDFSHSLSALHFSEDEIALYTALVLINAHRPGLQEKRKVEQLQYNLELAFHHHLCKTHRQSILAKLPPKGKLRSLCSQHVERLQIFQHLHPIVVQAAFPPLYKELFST

SMILES | IC50 [nM]
CCS(=O)(=O)c1ccc(CC(=O)Nc2ccc3c(n2)CCC(C)(c2cc(C)nc(C)n2)C3=O)nc1 (single isomer, unassigned) [compound 124, N-(6-(2,6-dimethylpyrimidin-4-yl)-6-methyl-5-oxo-5,6,7,8-tetrahydroquinolin-2-yl)-2-(5-(ethylsulfonyl)pyridin-2-yl)acetamide] | 100 to 500
CCS(=O)(=O)c1ccc(CNC(=O)c2ccc3c(n2)CCC(C)(c2cc(C)nc(C)n2)C3=O)cc1 (single isomer, unassigned) [compound 125, 6-(2,6-dimethylpyrimidin-4-yl)-N-(4-(ethylsulfonyl)benzyl)-6-methyl-5-oxo-5,6,7,8-tetrahydroquinoline-2-carboxamide] | < 100
CCS(=O)(=O)c1ccc(CNC(=O)c2ccc3c(n2)CCC(C)(c2cc(C)nc(C)n2)C3=O)cc1 (single isomer, unassigned) [compound 126, 6-(2,6-dimethylpyrimidin-4-yl)-N-(4-(ethylsulfonyl)benzyl)-6-methyl-5-oxo-5,6,7,8-tetrahydroquinoline-2-carboxamide] | > 500
CCS(=O)(=O)c1ccc(CC(=O)Nc2ccc3c(n2)C(C)CC(C)(c2nccn4ccnc24)C3=O)cc1 (centres unmarked) [Compound 48, 2-(4-(ethylsulfonyl)phenyl)-N-(6-(imidazo[1,2-a]pyrazin-8-yl)-6,8-dimethyl-5-oxo-5,6,7,8-tetrahydroquinolin-2-yl)acetamide] | > 500
CCS(=O)(=O)c1ccc(CC(=O)Nc2ccc3c(n2)CCC(C)(c2nc(C)cn4cc(C)nc24)C3=O)cc1 (centres unmarked) [Compound 51, N-(6-(2,6-dimethylimidazo[1,2-a]pyrazin-8-yl)-6-methyl-5-oxo-5,6,7,8-tetrahydroquinolin-2-yl)-2-(4-(ethylsulfonyl)phenyl)acetamide] | < 100
CCS(=O)(=O)c1ccc(CC(=O)Nc2cc(C)c3c(n2)CCC(C)(c2nccn4cc(C)nc24)C3=O)cc1 (centres unmarked) [Compound 52, N-(4,6-dimethyl-6-(2-methylimidazo[1,2-a]pyrazin-8-yl)-5-oxo-5,6,7,8-tetrahydroquinolin-2-yl)-2-(4-(ethylsulfonyl)phenyl)acetamide] | < 100
CCS(=O)(=O)c1ccc(CC(=O)Nc2cc(C)c3c(n2)CCC(C)(c2ccc(C(F)(F)F)nn2)C3=O)cc1 (centres unmarked) [Compound 53, N-(4,6-dimethyl-5-oxo-6-(6-(trifluoromethyl)pyridazin-3-yl)-5,6,7,8-tetrahydroquinolin-2-yl)-2-(4-(ethylsulfonyl)phenyl)acetamide] | > 500
CCS(=O)(=O)c1ccc(CC(=O)Nc2ccc3c(n2)CCC(C)(c2ccc(OC(C)C)nn2)C3=O)cc1 (centres unmarked) [Compound 57, 2-(4-(ethylsulfonyl)phenyl)-N-(6-(6-isopropoxypyridazin-3-yl)-6-methyl-5-oxo-5,6,7,8-tetrahydroquinolin-2-yl)acetamide] | > 500
CCS(=O)(=O)c1ccc(CC(=O)Nc2ccc3c(n2)CCC(C)(c2nccn4cc(C)nc24)C3=O)c(F)c1 (centres unmarked) [Compound 58, 2-(4-(ethylsulfonyl)-2-fluorophenyl)-N-(6-methyl-6-(2-methylimidazo[1,2-a]pyrazin-8-yl)-5-oxo-5,6,7,8-tetrahydroquinolin-2-yl)acetamide] | 100 to 500
Cc1cn2ccnc(C3(C)CCc4nc(NC(=O)Cc5ccc(S(C)(=O)=O)cc5)ccc4C3=O)c2n1 (centres unmarked) [Compound 59, N-(6-methyl-6-(2-methylimidazo[1,2-a]pyrazin-8-yl)-5-oxo-5,6,7,8-tetrahydroquinolin-2-yl)-2-(4-(methylsulfonyl)phenyl)acetamide] | > 500
CCS(=O)(=O)c1ccc(CC(=O)Nc2ccc3c(n2)CCC(C)(c2cnc(C(C)C)cn2)C3=O)cc1 (centres unmarked) [Compound 60, 2-(4-(ethylsulfonyl)phenyl)-N-(6-(5-isopropylpyrazin-2-yl)-6-methyl-5-oxo-5,6,7,8-tetrahydroquinolin-2-yl)acetamide] | 100 to 500
